biological target: T1, Nav1.7 voltage-gated sodium channel (Homo sapiens, UniProt Q15858); assay: Whole-cell voltage clamp electrophysiology assay; type: cell-based; conditions: cells stably expressing the voltage-gated sodium channel of interest
T1 construct: Gene(s) encoding the full-length protein of the voltage-gated sodium channel of interest are cloned and expressed; expressed in transfected cells
Source text: Gene(s) encoding the full-length protein of the voltage-gated sodium channel of interest are cloned and expressed under a suitable promoter in a suitable cell line, as well known in the art. […] Suitable screening assays are as follows.
Electrophysiological studies can be performed using automated patch-clamp electrophysiology platforms, like IonWorks HT, IonWorks Quattro, PatchXpress, QPatch or any other suitable platform. […] Suitable extracellular and intracellular buffer for such experiments are applied according to the instructions given by the manufacturer of the automated patch-clamp platforms. Cells that express the voltage-gated sodium channel protein of interest are exposed to drugs through the pipetting system integrated in the platforms. A suitable voltage stimulus protocol is used to activate the voltage-gated sodium channel proteins of interest through depolarisation from a defined holding potential.
Electrophysiological studies can also be performed using the whole cell configuration of the standard patch clamp technique. In this assay, cells that express the voltage-gated sodium channel protein of interest are exposed to the drugs by conventional microperfusion systems and a suitable voltage stimulus protocol is used to activate the voltage-gated sodium channels.

T1 sequence (Q15858 whole entry): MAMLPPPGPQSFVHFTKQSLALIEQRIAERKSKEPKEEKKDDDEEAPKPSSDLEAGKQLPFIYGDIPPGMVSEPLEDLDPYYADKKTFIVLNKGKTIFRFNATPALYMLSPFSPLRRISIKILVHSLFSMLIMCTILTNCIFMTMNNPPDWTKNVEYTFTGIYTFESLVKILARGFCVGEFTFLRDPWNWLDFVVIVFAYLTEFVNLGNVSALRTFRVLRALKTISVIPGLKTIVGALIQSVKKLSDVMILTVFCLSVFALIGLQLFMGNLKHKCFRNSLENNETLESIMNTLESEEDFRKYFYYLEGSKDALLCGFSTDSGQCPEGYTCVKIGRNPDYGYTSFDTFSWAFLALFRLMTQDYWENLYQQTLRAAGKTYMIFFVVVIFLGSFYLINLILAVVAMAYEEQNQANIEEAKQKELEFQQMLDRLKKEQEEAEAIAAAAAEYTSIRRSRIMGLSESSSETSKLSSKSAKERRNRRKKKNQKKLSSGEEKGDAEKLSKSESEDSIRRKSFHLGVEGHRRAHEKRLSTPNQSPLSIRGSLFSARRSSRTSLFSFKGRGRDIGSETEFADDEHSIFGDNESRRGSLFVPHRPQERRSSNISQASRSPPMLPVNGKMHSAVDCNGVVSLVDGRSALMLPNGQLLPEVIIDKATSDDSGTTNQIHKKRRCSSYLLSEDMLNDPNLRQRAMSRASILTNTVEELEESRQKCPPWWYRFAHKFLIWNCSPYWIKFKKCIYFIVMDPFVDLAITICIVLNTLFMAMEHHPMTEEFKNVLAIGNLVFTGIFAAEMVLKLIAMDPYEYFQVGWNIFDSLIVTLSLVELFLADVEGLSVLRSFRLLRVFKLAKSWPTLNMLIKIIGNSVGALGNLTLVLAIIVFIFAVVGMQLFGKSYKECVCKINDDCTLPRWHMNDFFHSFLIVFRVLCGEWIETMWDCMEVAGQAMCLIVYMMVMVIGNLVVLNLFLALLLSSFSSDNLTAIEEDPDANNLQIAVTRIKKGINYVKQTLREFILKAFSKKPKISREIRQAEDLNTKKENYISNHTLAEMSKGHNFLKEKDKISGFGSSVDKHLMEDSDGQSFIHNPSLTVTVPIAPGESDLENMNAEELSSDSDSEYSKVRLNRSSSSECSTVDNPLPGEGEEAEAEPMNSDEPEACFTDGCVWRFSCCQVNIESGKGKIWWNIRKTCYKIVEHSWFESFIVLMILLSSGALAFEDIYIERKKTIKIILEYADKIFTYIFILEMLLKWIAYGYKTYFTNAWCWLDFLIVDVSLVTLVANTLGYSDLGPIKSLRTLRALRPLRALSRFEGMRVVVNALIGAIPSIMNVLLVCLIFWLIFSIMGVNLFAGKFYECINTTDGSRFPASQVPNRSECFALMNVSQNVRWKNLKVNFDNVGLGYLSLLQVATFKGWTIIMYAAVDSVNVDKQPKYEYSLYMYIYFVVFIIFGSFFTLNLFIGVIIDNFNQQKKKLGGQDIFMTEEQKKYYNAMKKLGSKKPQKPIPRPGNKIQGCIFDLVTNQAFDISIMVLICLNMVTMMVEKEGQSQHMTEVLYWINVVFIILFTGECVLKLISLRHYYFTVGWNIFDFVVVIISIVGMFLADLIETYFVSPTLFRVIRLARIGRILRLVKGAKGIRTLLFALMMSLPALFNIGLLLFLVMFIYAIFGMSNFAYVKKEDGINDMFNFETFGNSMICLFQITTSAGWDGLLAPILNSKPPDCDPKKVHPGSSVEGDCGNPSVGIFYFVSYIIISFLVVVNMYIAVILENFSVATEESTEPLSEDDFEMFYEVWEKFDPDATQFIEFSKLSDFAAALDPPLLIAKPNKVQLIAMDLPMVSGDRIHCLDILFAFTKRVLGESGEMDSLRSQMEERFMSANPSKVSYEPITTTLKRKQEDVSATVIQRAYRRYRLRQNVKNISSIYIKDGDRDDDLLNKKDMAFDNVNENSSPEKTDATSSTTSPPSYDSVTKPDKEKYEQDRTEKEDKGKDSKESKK

Q: `COc1ccc(C(=O)N[C@@H]2CCc3cccc(-c4ccncc4)c3C2)c(OC)c1` [Example 16, 2,4-dimethoxy-N-[(2R)-8-pyridin-4-yl-1,2,3,4-tetrahydronaphthalen-2-yl]-benzamide] was tested. Which IC50 did it give?
A: 2 µM

Q: With `Cc1nn(-c2ccccc2)nc1C(=O)N[C@@H]1CCc2cccc(-c3ccncc3)c2C1` [Example 17, 5-methyl-2-phenyl-N-[(2R)-8-pyridin-4-yl-1,2,3,4-tetrahydronaphthalen-2-yl]-2H-1,2,3-triazole-4-carboxamide] as the compound, how does the IC50 read?
A: 3.98 µM

Q: With `O=C(N[C@@H]1COc2cccc(-c3ccncc3)c2C1)c1ccc(OCC(F)(F)F)nc1` [Example 18, N-[(3S)-5-pyridin-4-yl-3,4-dihydro-2H-chromen-3-yl]-6-(2,2,2-trifluoroethoxy)nicotinamide] as the compound, how does the IC50 read?
A: 0.1 µM

Q: With `O=C(N[C@@H]1COc2cccc(-c3ccncc3)c2C1)c1ccc(OCCC(F)(F)F)nc1` [Example 19, N-[(3S)-5-pyridin-4-yl-3,4-dihydro-2H-chromen-3-yl]-6-(3,3,3-trifluoropropoxy)nicotin-amide] as the compound, how does the IC50 read?
A: 0.0794 µM

Q: How did the IC50 turn out when `CC(C)Oc1ccc(C(=O)N[C@@H]2COc3cccc(-c4ccncc4)c3C2)cn1` [Example 20, 6-isopropoxy-N-[(3S)-5-pyridin-4-yl-3,4-dihydro-2H-chromen-3-yl]nicotin-amide] was run?
A: 0.158 µM

Q: How did the IC50 turn out when `O=C(N[C@@H]1COc2cccc(-c3ccncc3)c2C1)c1ccc(OC2CCCC2)nc1` [Example 21, 6-(cyclopentyloxy)-N-[(3S)-5-pyridin-4-yl-3,4-dihydro-2H-chromen-3-yl]nicotin-amide] was run?
A: 0.0631 µM

Q: With `COc1ccc(C(=O)N[C@@H]2COc3cccc(-c4ccncc4)c3C2)c(OC)c1` [Example 22, 2,4-dimethoxy-N-[(3S)-5-pyridin-4-yl-3,4-dihydro-2H-chromen-3-yl]benzamide] as the compound, how does the IC50 read?
A: 6.31 µM

Q: How did the IC50 turn out when `Cc1nn(-c2ccccc2)nc1C(=O)N[C@@H]1COc2cccc(-c3ccncc3)c2C1` [Example 23, 5-methyl-2-phenyl-N-[(3S)-5-pyridin-4-yl-3,4-dihydro-2H-chromen-3-yl]-2H-1,2,3-triazole-4-carboxamide] was run?
A: 1.26 µM

Q: How did the IC50 turn out when `CC(C)COc1ccc(C(=O)N[C@@H]2COc3cccc(-c4ccncc4)c3C2)cn1` [Example 24, 6-isobutoxy-N-[(3S)-5-pyridin-4-yl-3,4-dihydro-2H-chromen-3-yl]nicotin-amide] was run?
A: 0.126 µM

Q: With `CCOc1ccc(C(=O)N[C@@H]2COc3cccc(-c4ccncc4)c3C2)cn1` [Example 25, 6-ethoxy-N-[(3S)-5-pyridin-4-yl-3,4-dihydro-2H-chromen-3-yl]nicotin-amide] as the compound, how does the IC50 read?
A: 2 µM

Q: With `O=C(N[C@@H]1COc2cccc(-c3ccncc3)c2C1)c1ccc(OCC(F)F)nc1` [Example 26, 6-(2,2-difluoroethoxy)-N-[(3S)-5-pyridin-4-yl-3,4-dihydro-2H-chromen-3-yl]nicotin-amide] as the compound, how does the IC50 read?
A: 0.631 µM

Q: `O=C(N[C@@H]1COc2cccc(-c3ccncc3)c2C1)c1ccc(OC(CF)CF)nc1` [Example 27, 6-[2-fluoro-1-(fluoromethyl)ethoxy]-N-[(3S)-5-pyridin-4-yl-3,4-dihydro-2H-chromen-3-yl]nicotin-amide] was tested. Which IC50 did it give?
A: 0.631 µM

Q: `O=C(N[C@@H]1COc2cccc(-c3ccncc3)c2C1)c1cnc(OC2CCCC2)nc1` [Example 28, 2-(cyclopentyloxy)-N-[(3S)-5-pyridin-4-yl-3,4-dihydro-2H-chromen-3-yl]Pyrimidine-5-carboxamide] was tested. Which IC50 did it give?
A: 0.1 µM

Q: `O=C(N[C@@H]1COc2cccc(-c3ccncc3)c2C1)c1ccc(OC2CCC2)nc1` [Example 29, 6-(cyclobutyloxy)-N-[(3S)-5-pyridin-4-yl-3,4-dihydro-2H-chromen-3-yl]nicotin-amide] was tested. Which IC50 did it give?
A: 0.158 µM

Q: How did the IC50 turn out when `O=C(N[C@@H]1COc2cccc(-c3ccncc3)c2C1)c1ccc(OCC2CC2)nc1` [Example 30, 6-(cyclopropylmethoxy)-N-[(3S)-5-pyridin-4-yl-3,4-dihydro-2H-chromen-3-yl]nicotin-amide] was run?
A: 0.2 µM

Q: With `Cc1noc(C)c1-c1cccc2c1C[C@H](NC(=O)c1ccc(OC(C)C)nc1)CC2` [Example 31, N-[(2R)-8-(3,5-dimethylisoxazol-4-yl)-1,2,3,4-tetrahydronaphthalen-2-yl]-6-isopropoxy-nicotinamide] as the compound, how does the IC50 read?
A: 2.51 µM

Q: With `Cc1noc(C)c1-c1cccc2c1C[C@H](NC(=O)c1cnc(OC3CCCC3)nc1)CC2` [Example 33, 2-(cyclopentyloxy)-N-[(2R)-8-(3,5-dimethylisoxazol-4-yl)-1,2,3,4-tetrahydronaphthalen-2-yl]pyrimidine-5-carboxamide] as the compound, how does the IC50 read?
A: 0.316 µM

Q: How did the IC50 turn out when `CCCCS(=O)(=O)c1ccc(C(=O)N[C@@H]2COc3cccc(-c4ccncc4)c3C2)cn1` [Example 34, 6-(butylsulfonyl)-N-[(3S)-5-pyridin-4-yl-3,4-dihydro-2H-chromen-3-yl]nicotinamide] was run?
A: 0.631 µM

Q: For `O=C(N[C@@H]1COc2cccc(-c3ccncc3)c2C1)c1ccc(Cl)nc1` [Example 35, 6-chloro-N-[(3S)-5-pyridin-4-yl-3,4-dihydro-2H-chromen-3-yl]nicotinamide], which IC50 is on record?
A: 0.631 µM

Q: `CC(C)Oc1ncc(C(=O)N[C@@H]2COc3cccc(-c4ccncc4)c3C2)cn1` [Example 36, 2-isopropoxy-N-[(3S)-5-pyridin-4-yl-3,4-dihydro-2H-chromen-3-yl]pyrimidine-5-carboxamide] was tested. Which IC50 did it give?
A: 1.26 µM

Q: For `COc1cnc(C(=O)N[C@@H]2COc3cccc(-c4ccncc4)c3C2)cn1` [Example 37, 5-methoxy-N-[(3S)-5-pyridin-4-yl-3,4-dihydro-2H-chromen-3-yl]pyrazine-2-carboxamide], which IC50 is on record?
A: 1 µM

Q: For `CC(C)Oc1cnc(C(=O)N[C@@H]2COc3cccc(-c4ccncc4)c3C2)cn1` [Example 38, 5-isopropoxy-N-[(3S)-5-pyridin-4-yl-3,4-dihydro-2H-chromen-3-yl]pyrazine-2-carboxamide], which IC50 is on record?
A: 0.631 µM

Q: With `CC(C)Oc1ccc(C(=O)N[C@@H]2CCc3cccc(-c4ccncc4F)c3C2)cn1` [Example 39, N-[(2R)-8-(3-fluoropyridin-4-yl)-1,2,3,4-tetrahydronaphthalen-2-yl]-6-isopropoxynicotinamide] as the compound, how does the IC50 read?
A: 0.126 µM

Q: Which IC50 does the source give for `O=C(N[C@@H]1CCc2cccc(-c3ccncc3F)c2C1)c1ccc(OCC(F)(F)F)nc1` [Example 40, N-[(2R)-8-(3-fluoropyridin-4-yl)-1,2,3,4-tetrahydronaphthalen-2-yl]-6-(2,2,2-trifluoroethoxy)nicotinamide] here?
A: 0.0501 µM

Q: Which IC50 does the source give for `O=C(N[C@@H]1COc2cccc(-c3ccncc3)c2C1)c1cnc2ccccc2n1` [Example 41, N-[(3S)-5-pyridin-4-yl-3,4-dihydro-2H-chromen-3-yl]quinoxaline-2-carboxamide] here?
A: 5.01 µM

Q: For `CC(C)Oc1cnc(C(=O)N[C@@H]2COc3cccc(-c4cccnc4)c3C2)cn1` [Example 42, 5-isopropoxy-N-[(3S)-5-pyridin-3-yl-3,4-dihydro-2H-chromen-3-yl]pyrazine-2-carboxamide], which IC50 is on record?
A: 1 µM

Q: How did the IC50 turn out when `O=C(N[C@@H]1COc2cccc(-c3cccnc3)c2C1)c1cnc(OCCC(F)(F)F)cn1` [Example 43, N-[(3S)-5-pyridin-3-yl-3,4-dihydro-2H-chromen-3-yl]-5-(3,3,3-trifluoropropoxy)pyrazine-2-carboxamide] was run?
A: 0.501 µM

Q: How did the IC50 turn out when `COc1cnc(C(=O)N[C@@H]2COc3cccc(-c4cccnc4)c3C2)cn1` [Example 44, 5-methoxy-N-[(3S)-5-pyridin-3-yl-3,4-dihydro-2H-chromen-3-yl]pyrazine-2-carboxamide] was run?
A: 0.631 µM

From patent publication US8143408B2, “N-(8-heteroaryltetrahydronaphtalene-2yl) or N-(5-heteroarylchromane-3-yl) carboxamide derivatives for the treatment of pain” (AstraZeneca AB, priority 2007, dated 2012)
